Measurements published in US20190381086A1, “INHIBITION OF NEDDYLATION USING GLYCYL-tRNA SYNTHETASE INHIBITORS” (The Scripps Research Institute, priority 2015, published 2019).

Assays:
[1] = mouse, in vivo
Protocol: (§1) GlySA (DMSO stock solution diluted by saline) were administrated to three month old female BALB CJ mice via tail vein injections. […] The GlySA concentration tested were 0.4 mg/kg (10 μM), 2.0 mg/kg (50 μM), 4.0 mg/kg (100 μM). N=3 for each group.
as §1, with “Animal experiments were also performed to study the use of GlySA to treat cancer. A maximum tolerant dosage assay of GlySA was conducted. GlySA (DMSO” for “GlySA (DMSO”

[2] = test system: OVCAR-5; experiment: NCI 60 Cell One-Dose Screen; type: cell-based, human; conditions: OVCAR-5, Ovarian Cancer; single dose 10^-5 M
[3] = test system: NCI/ADR-RES; experiment: NCI 60 Cell One-Dose Screen; type: cell-based, human; conditions: Ovarian Cancer, single dose 10^-5 M
[4] = test system: MDA-MB-231/ATCC; experiment: NCI 60 Cell One-Dose Screen; type: cell-based, human; conditions: Breast Cancer, single dose 10^-5 M
[5] = test system: NCI-H460; experiment: NCI 60 Cell One-Dose Screen; type: cell-based, human; conditions: NCI-H460, Non-Small Cell Lung Cancer; single dose 10^-5 M
[6] = test system: NCI-H23; experiment: NCI 60 Cell One-Dose Screen; type: cell-based, human; conditions: NCI-H23, Non-Small Cell Lung Cancer; single dose 10^-5 M
[7] = test system: HT29; experiment: NCI 60 Cell One-Dose Screen; type: cell-based, human; conditions: HT29, Colon Cancer; single dose 10^-5 M
[8] = test system: MCF7; experiment: NCI 60 Cell One-Dose Screen; type: cell-based, human; conditions: MCF7, Breast Cancer; single dose 10^-5 M
[9] = test system: SR; experiment: NCI 60 Cell One-Dose Screen; type: cell-based, human; conditions: Leukemia, single dose 10^-5 M
[10] = test system: HS 578T; experiment: NCI 60 Cell One-Dose Screen; type: cell-based, human; conditions: Breast Cancer, single dose 10^-5 M
[11] = test system: RPMI-8226; experiment: NCI 60 Cell One-Dose Screen; type: cell-based, human; conditions: RPMI-8226, Leukemia; single dose 10^-5 M
[12] = test system: UACC-257; experiment: NCI 60 Cell One-Dose Screen; type: cell-based, human; conditions: UACC-257, Melanoma; single dose 10^-5 M
[13] = test system: SN12C; type: cell-based; conditions: Renal Cancer
[14] = test system: SR; type: cell-based; conditions: Leukemia
[15] = test system: OVCAR-8; type: cell-based; conditions: OVCAR-8, Ovarian Cancer
[16] = test system: HT29; type: cell-based; conditions: HT29, Colon Cancer
[17] = test system: HCT-116; type: cell-based; conditions: HCT-116, Colon Cancer
[18] = test system: HCT-15; type: cell-based; conditions: HCT-15, Colon Cancer
[19] = test system: CCRF-CEM; type: cell-based; conditions: Leukemia
[20] = test system: K-562; type: cell-based; conditions: K-562, Leukemia
[21] = test system: SW-620; type: cell-based; conditions: SW-620, Colon Cancer
[22] = test system: SK-OV-3; type: cell-based; conditions: SK-OV-3, Ovarian Cancer
[23] = test system: ACHN; type: cell-based; conditions: Renal Cancer
[24] = test system: U251; type: cell-based; conditions: U251, CNS Cancer
[25] = test system: SNB-75; type: cell-based; conditions: SNB-75, CNS Cancer
[26] = test system: SF-539; type: cell-based; conditions: SF-539, CNS Cancer
[27] = test system: NCI-H522; type: cell-based; conditions: NCI-H522, Non-Small Cell Lung Cancer
[28] = test system: SK-MEL-2; type: cell-based; conditions: SK-MEL-2, Melanoma
[29] = test system: NCI-H226; type: cell-based; conditions: NCI-H226, Non-Small Cell Lung Cancer
[30] = Homo sapiens, read-out: LC50 (the source's name)

In the case of `NCC(=O)NS(=O)(=O)OC[C@H]1O[C@@H](n2cnc3c(N)ncnc32)[C@H](O)[C@@H]1O` [GlySA, glycylsulfamoyladenosine], the “survival of mice after four injections” value [1] is reported as “all were alive”, the “Growth inhibition count (%)” value [2] is reported as 0.2916% and the “Growth inhibition count (%)” value [3] is reported as 2.073%. For the same compound, the “Growth inhibition count (%)” value [4] was 2.608%, the “Growth inhibition count (%)” value [5] was 3.35% and the “Growth inhibition count (%)” value [6] was 5.695%. The “Growth inhibition count (%)” value [7] was 6.002%, the “Growth inhibition count (%)” value [8] was 8.271% and the “Growth inhibition count (%)” value [9] was 9.926%. For the same compound, the “Growth inhibition count (%)” value [10] was 16.07%, the “Growth inhibition count (%)” value [11] was 18.04% and the “Growth inhibition count (%)” value [12] was 27.43%. For the same compound, the GI50 ([13]; Homo sapiens) was 0.562 µM, the CC50 [13, 30] was 95.5 µM and the LC50/GI50 [13] was 169.8. The GI50 ([14]; Homo sapiens) was 0.933 µM, the CC50 [14, 30] was > 100 µM and the LC50/GI50 [14] was >107.2. For the same compound, the GI50 ([15]; Homo sapiens) was 2.46 µM, the CC50 [15, 30] was > 100 µM and the LC50/GI50 [15] was >40.7. For the same compound, the LC50/GI50 [16] was >33.9, the GI50 ([16]; Homo sapiens, HT-29) was 2.95 µM and the CC50 ([16]; Homo sapiens, HT-29, read-out: LC50 (the source's name)) was > 100 µM. For the same compound, the LC50/GI50 [17] was >31.6, the GI50 ([17]; Homo sapiens) was 3.16 µM and the CC50 [17, 30] was > 100 µM. The LC50/GI50 [18] was 27.5, the GI50 ([18]; Homo sapiens) was 2.95 µM and the CC50 [18, 30] was 81.3 µM. For the same compound, the GI50 ([19]; Homo sapiens) was 3.71 µM, the LC50/GI50 [19] was >26.9 and the GI50 ([20]; Homo sapiens, K562) was 3.71 µM. The LC50/GI50 [20] was >26.9, the GI50 ([21]; Homo sapiens) was 3.71 µM and the CC50 [21, 30] was > 100 µM. The LC50/GI50 [21] was >26.9, the GI50 ([22]; Homo sapiens) was 2.88 µM and the CC50 [22, 30] was 37.1 µM. The LC50/GI50 [22] was 12.9, the GI50 ([23]; Homo sapiens) was 2.88 µM and the CC50 [23, 30] was 33.9 µM. For the same compound, the LC50/GI50 [23] was 11.7, the GI50 ([24]; Homo sapiens, U-251) was 0.55 µM and the CC50 ([24]; Homo sapiens, U-251, read-out: LC50 (the source's name)) was 5.75 µM. For the same compound, the LC50/GI50 [24] was 10.5, the GI50 ([25]; Homo sapiens) was 1.15 µM and the CC50 [25, 30] was 9.55 µM. For the same compound, the LC50/GI50 [25] was 8.3, the GI50 ([26]; Homo sapiens) was 1.45 µM and the CC50 [26, 30] was 8.91 µM. For the same compound, the LC50/GI50 [26] was 6.2, the GI50 ([27]; Homo sapiens) was 1.74 µM and the CC50 [27, 30] was 8.51 µM. It also gave an LC50/GI50 [27] of 4.9, a GI50 ([28]; Homo sapiens) of 2.24 µM and a CC50 [28, 30] of 10 µM. It also gave an LC50/GI50 [28] of 4.5, a GI50 ([29]; Homo sapiens) of 2 µM and a CC50 [29, 30] of 7.08 µM. It also gave an LC50/GI50 [29] of 3.5.
